For this assay, the target named is Protein Tat (Human immunodeficiency virus type 1 group M subtype B (isolate HXB2)) (UniProt P04608). Description: HIV-1 Tat–TAR interaction blockers – biochemical, fluorescence polarization, FAM-labeled TAR RNA, counter-screen for Vif-APOBEC3G degradation inhibitor project, dose response (AID 1117361). Particulars: Tat-TAR RNA binding.
Chain of Protein Tat (Human immunodeficiency virus type 1 group M subtype B (isolate HXB2)) (P04608 whole entry, looked up): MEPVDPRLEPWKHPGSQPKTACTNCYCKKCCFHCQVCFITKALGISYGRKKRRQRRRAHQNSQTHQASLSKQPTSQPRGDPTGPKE
As usually defined, the IC50 is the point on the concentration scale where inhibition reaches its midpoint. As for `COc1cccc(C2C(C#N)=C(N)OC3=C2C(=O)CC(c2ccco2)C3)c1OCc1ccc(F)cc1` (stereo not given), the IC50 was 12.2 µM.

`CCC1=NN2C(=N)/C(=C\c3ccc(SCc4ccco4)o3)C(=O)N=C2S1`: the IC50 was 63.3 µM.

With `CC(=C/c1ccco1)/C=N/NC(=O)Cc1cccn1C`, the IC50 was 10.7 µM.

For the molecule `CCCOc1ccc(N)cc1N`, the IC50 was 59.5 µM.

As to `C=C(C)C(=O)Nc1ccc2c(c1)OCCOCCOCCO2`, the concentration for half-maximal inhibition (IC50) was 21.6 µM.

For `O=C1NC(=S)S/C1=C\c1ccc(SCc2ccco2)o1`, the IC50 was 0.926 µM.

For `COC(=O)C1=C(C)NC(=O)/C1=C\c1ccco1`, the half-maximal inhibitory concentration (IC50) is 39.7 µM.

With `CCOC(=O)COc1nc(-c2ccco2)cc(-c2ccco2)c1C#N`, the IC50 was 8.34 µM.

As to `CC1Cc2ccccc2N1Cc1cc(=O)n2ccsc2n1` (stereo not given), the IC50 was 10 µM.

`CCCNC1=C(C)C(=O)C2=C(C1=O)C(COC(N)=O)[C@]1(OC)C3NC3CN21` (stereo not given in full): the IC50 is 22.7 µM.

For the molecule `Cc1ccc(C)c(-n2c(Cc3cc(=O)[nH]c(=O)[nH]3)nnc2SC(C)C)c1`, the IC50 was 77 µM.

On to `N#C/C(=C\c1ccc([N+](=O)[O-])o1)C(=O)Nc1ccc(F)cc1`, for which the half-inhibitory concentration (IC50) is 55.6 µM.

As for `COC(=O)c1ccc(CC(=O)c2c(C)cc(O)cc2O)o1`, the IC50 was 11.2 µM.

On to `C=C(C)C(=O)Nc1cccc(C2=NOC3(C2)C[C@@H](C(N)=O)N(C(=O)/C=C/CC)C3)c1` (stereo not given in full), for which the IC50 is 24.5 µM.

On to `O=S(=O)(O)c1cc(Cl)cc(N=Nc2ccc(O)cc2O)c1O`, for which the IC50 is 22.5 µM.

In the case of `O=C1NC(=O)N(c2ccc(Cl)cc2)C(=O)/C1=C\c1ccc(Sc2nc3ccccc3[nH]2)o1`, the half-maximal inhibitory concentration (IC50) was 3.41 µM.

Regarding `O=[N+]([O-])c1ccc(N/N=C/c2ccc(O)c(O)c2O)c(S(=O)(=O)N2CCOCC2)c1`, the IC50 was 34 µM.

As for `CCOC(=O)c1ccc(CC(=O)c2ccc(O)c(O)c2O)o1`, the IC50 is 74 µM.

On to `O=[N+]([O-])c1cc(Br)c(O)c(C=Nc2ccc(N3CCOCC3)cc2)c1`, for which the half-inhibitory concentration (IC50) is 77.5 µM.

As for `Cc1cccc2cc(-c3ccccc3)c(-c3ccccc3)c[n+]12`, the concentration for half-maximal inhibition (IC50) was 15 µM.

Regarding `Oc1ccc(N=Cc2ccc(-c3cccs3)s2)cc1`, the IC50 was 8.64 µM.

In the case of `CC(=O)OCCCNc1cc(Sc2nc3ccccc3s2)c2nonc2c1[N+](=O)[O-]`, the concentration for half-maximal inhibition (IC50) is 3.41 µM.

Regarding `CC1=NN(c2cccc(C(=O)O)c2)C(=O)/C1=C\C=C\c1ccco1`, the IC50 is 12 µM.

Take `O=C(CSc1nnnn1-c1ccccc1)Nc1ncc2c(n1)CC(c1ccco1)CC2=O` (stereo not given): the IC50 is 58.5 µM.

On to `CCOC(=O)c1ccc2c(c1)C1C=CCC1C(C(=O)O)N2` (stereo not given), for which the IC50 was 11 µM.

With `CCOc1cccc(CNCCNC(=O)c2nonc2N)c1`, the IC50 is 84.2 µM.

`O=C(Cc1csc(N2CCOCC2)n1)N/N=C/c1ccc(O)c(O)c1O`: the IC50 is 16.7 µM.

For the molecule `Cc1cc(C(=O)CCl)c(C)n1-c1c(C)n(C)n(-c2ccccc2)c1=O`, the IC50 is 20.3 µM.

In the case of `CC(=O)Nc1ccc(S(=O)(=O)Nc2nc3ccccc3nc2Nc2ccc(C(=O)O)c(O)c2)cc1`, the IC50 was 32.2 µM.

For the molecule `CC1S/C(=N/N=C/c2ccco2)NC1=O` (stereo not given), the concentration for half-maximal inhibition (IC50) was 70.3 µM.

As to `CCN(CC)c1ccc(/C=N/n2c(C)cc(C)cc2=O)cc1`, the IC50 is 5.27 µM.

For the molecule `CN1CCN(C2=C(Cl)C(=O)c3ccccc3C2=O)CC1`, the IC50 is 40 µM.

Regarding `O=C(O)COc1ccc2c(c1)O/C(=C\c1ccco1)C2=O`, the IC50 is 53.1 µM.

With `Cc1ccc(C(=O)N/N=C\c2cc(Br)c(Br)o2)cn1`, the IC50 is 2.34 µM.

For `CC1=CN2C(=N)/C(=C/c3ccc([N+](=O)[O-])o3)C(=O)N=C2S1`, the IC50 was 12.2 µM.

Consider `CCOC(=O)c1ccc(NS(=O)(=O)c2ccc3c(c2)oc(=O)n3C)cc1`, for which the IC50 was 0.996 µM.

Turning to `Nc1c(C(=O)NC2CC2)sc2nc3c(c(-c4ccco4)c12)CC/C3=C/c1ccco1`, the IC50 was 0.937 µM.

For the molecule `COc1cc(CNc2ccc(O)cc2)cc(Br)c1OCc1ccccc1`, the IC50 was 34.5 µM.

For `CCc1nc2oc3cc(OC)ccc3c(=O)c2c(=O)n1Cc1ccco1`, the IC50 was 24 µM.

Turning to `CCOc1cccc(=O)c2c(C)oc(C)c12`, the 50% inhibitory concentration (IC50) was 22.6 µM.

(Values after PubChem BioAssay AID1117361 (Southern Research Institute, 2015).)
